One may read the IC50 as the concentration that gives 50% inhibition. Low values mean greater potency in that assay, high ones weaker potency in that assay. Broadly, the pIC50 is the negative decadic logarithm of the IC50, by convention in mol/L. A high value points to a low IC50. As a reminder, the inhibition is the percentage by which the read-out fell short of the control. Read a high inhibition as a response far below the control.

Consider 2 compounds from patent publication US5719278A, “Tricyclic benzazepine vasopressin antagonists” (American Cyanamid Company, priority 1996, dated 1998).

Experiment [1] addresses T1, Rat Hepatic V1 Receptors (Rattus norvegicus, UniProt P30560).
T1 construct: Rat liver plasma membranes expressing the vasopressin V1 receptor subtypes; from tissue; host or cells: rat liver plasma membranes
The experiment is described as follows: Binding Assay to Rat Hepatic V1 Receptors. Conditions: Rat Hepatic V1 Receptors (no asterisk). As for the experimental part:
Binding Assay to Rat Hepatic V1 Receptors
Rat liver plasma membranes expressing the vasopressin V1 receptor subtypes are isolated by sucrose density gradient according to the method described by Lesko et al., (1973). These membranes are quickly suspended in 50.0 mM Tris.HCl buffer, pH 7.4, containing 0.2% bovine serum albumin (BSA) and 0.1 mM phenylmethylsulfonylfluoride (PMSF) and kept frozen at -70° C. until used in subsequent binding experiments. For binding experiments, the following is added to the wells of a ninety-six well format microtiter plate: 100 μl of 100.0 mM Tris.HCl buffer containing 10.0 mM MgCl2, 0.2% heat inactivated BSA and a mixture of protease inhibitors: leupeptin, 1.0 mg %; aprotinin, 1.0 mg %, 1,10-phenanthroline,2.0 mg %; trypsin inhibitor, 10.0 mg % and 0.1 mM PMSF, 20.0 μl of [phenylalanyl-3,4,5-^3 H] vasopressin (S.A. 45.1 Ci/mmole) at 0.8 nM, and the reaction initiated by the addition of 80 μl of tissue membranes containing 20 μg of tissue protein. The plates are kept undisturbed on the bench top at room temperature for 120 min. to reach equilibrium. Non-specific samples are assayed in the presence of 0.1 μM of the unlabeled antagonist phenylalanylvasopressin, added in 20.0 μl volume to a final incubation volume of 200 μl. Upon completion of binding, the content of each well is filtered off, using a Brandel® cell Harvester (Gaithersburg, Md.). The radioactivity trapped on the filter disk by the ligand-receptor complex is assessed by liquid scintillation counting in a Packard LS Counter, with an efficiency of 65% for tritium. The data are analyzed for IC50 values by the LUNDON-2 program for competition (LUNDON SOFTWARE, Ohio).

Experiment [2] has as its system Vasopressin V2. The experiment is described as follows: Vasopressin V2 Antagonist Activity in Conscious Hydrated Rats. Conditions: 10 mg/kg orally, N = 2, AVP 0.4 μg/kg intraperitoneally. It is filed as in vivo, rat. The procedure: Vasopressin V2 Antagonist Activity in Conscious Hyrdated Rats
Conscious hydrated rats are treated with compounds under study from 0.1 to 100 mg/kg orally or vehicle. Two to four rats are used for each compound. One hour later, arginine vasopressin (AVP, antidiuretic hormone, ADH) dissolved in peanut oil is administered at 0.4 μg/kg intraperitoneally. Two rats in each test would not receive arginine vasopressin but only the vehicle (peanut oil) to serve as water-loading control. Twenty minutes later each rat is given 30 mL/kg of deionized water orally by gavage and is placed individually in a metabolic cage equipped with a funnel and a graduated glass cylinder to collect urine for four hours. Urine volume is measured and osmolality analyzed by use of a Fiske One-Ten osmometer (Fiske Assoc., Norwood, Mass. U.S.A.). Urinary sodium, potassium, and chloride are analyzed by use of ion-specific electrodes in a Beckman E3(Electrolyte 3) Analyzer.
In the following results, […] and decreased osmolality relative to AVP-control indicates activity.

The target in experiment [3] is T2, oxytocin receptors (Rattus norvegicus, UniProt P70536).
T2 construct: The uteri are dissected out, cleaned of fat and connective tissues; from tissue; host or cells: uterus of DES-treated female Sprague-Dawley rats
T2 sequence (P70536 1-388): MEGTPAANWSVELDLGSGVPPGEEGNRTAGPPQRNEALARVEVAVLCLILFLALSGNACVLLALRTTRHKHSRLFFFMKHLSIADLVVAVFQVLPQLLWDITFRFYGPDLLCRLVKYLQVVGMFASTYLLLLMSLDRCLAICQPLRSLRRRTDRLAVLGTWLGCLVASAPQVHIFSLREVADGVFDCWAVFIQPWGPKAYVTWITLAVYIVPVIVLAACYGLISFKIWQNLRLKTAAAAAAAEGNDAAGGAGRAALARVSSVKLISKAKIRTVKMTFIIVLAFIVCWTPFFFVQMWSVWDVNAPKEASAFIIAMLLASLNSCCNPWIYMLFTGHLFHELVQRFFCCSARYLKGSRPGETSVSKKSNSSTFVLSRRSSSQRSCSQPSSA
The experiment can be described thus: Oxytocin Receptor Binding. As to conditions: for pIC50: 1.0 nM [^3 H]OT, 60 min., 22° C. Further details: species or system Sprague-Dawley rat. As for the experimental part:
Oxytocin Receptor Binding
Female Sprague-Dawley rats weighing approximately 200-250 g are injected intramuscularly (i.m.) with 0.3 mg/kg of body weight of diethylstilbestrol (DES). The rats are sacrificed 18 hours later under pentobarbital anesthesia. The uteri are dissected out, cleaned of fat and connective tissues and rinsed in 50 ml of normal saline. The tissue pooled from six rats is homogenized in 50 ml of […] TriS.HCl, containing 0.5 mM dithiothreitol and 1.0 mM EDTA, adjusted to pH 7.4, using a polytron at setting 6 with three passes of 10 sec each. The homogenate is passed through two (2) layers of cheesecloth and the filtrate contrifuged at 1000×g for 10 min. The clear supernatant is removed and recentrifuged at 165,000×g for 30 min. The resulting pellet containing the oxytocin receptors is resuspended in 50.0 mM Tris.HCl containing 5.0 mM MgCl2 at pH 7.4, to give a protein concentration of 2.5 mg/ml of tissue suspension. This preparation is used in subsequent binding assays with [^3 H]Oxytocin.
Binding of 3,5-[^3 H]Oxytocin ([^3 H]OT) to its receptors is done in microtiter plates using [^3 H]OT, at various concentrations, in an assay buffer of 50.0 mM Tris.HCl, pH 7.4 and containing 5.0 mM MgCl2, and a mixture of protease inhibitors: BSA, 0.1 mg; aprotinin, 1.0 mg; 1,10-phenanthroline, 2.0 mg; […], 10.0 mg; and PMSF, 0.3 mg per 100 ml of buffer solution. Non-specific binding is determined in the presence of 1.0 uM unlabeled OT. The binding reaction is terminated after 60 min., at 22° C., by rapid filtration through glass fiber filters using a Brandel® cell harvester (Biomedical Research and Development Laboratories, Inc., Gaithersburg, Md.). Competition experiments are conducted at equilibrium using 1.0 nM [^3 H]OT and varying the concentration of the displacing agents. The concentrations of agent displacing 50% of [^3 H]OT at its sites (IC50) are calculated by a computer assisted LUNDON-2 program (LUNDON SOFTWARE INC., Ohio, U.S.A.).

For experiment [4], the target named is T3, Rat Kidney Medullary V2 Receptors (Rattus norvegicus, UniProt Q00788).
T3 construct: Medullary tissues from rat kidneys are dissected out; from tissue; host or cells: rat kidney medulla membranes
The experiment can be described thus: Binding Assay to Rat Kidney Medullary V2 Receptors. Conditions: Rat Kidney Medullary V2 Receptors (no asterisk). The procedure:
Binding Assay to Rat Kidney Medullary V2 Receptors
Medullary tissues from rat kidneys are dissected out, cut into small pieces and let soak in a […] sodium chloride solution containing 1.0 mM EDTA with many changes of the liquid phase, until the solution is clear of blood. The tissue is homogenized in a 0.25M sucrose solution containing 1.0 mM EDTA and 0.1 mM PMSF using a Potter-Elvehjem homogenizer with a teflon pestle. The homogenate is filtered through several layers (4 layers) of cheese cloth. The filtrate is rehomogenized using a dounce homogenizer, with a tight fitting pestle. The final homogenate is contrifuged at 1500×g for 15 min. The nuclear pellet is discarded and the supernatant fluid recentrifuged at 40,000×g for 30 min. The resulting pellet formed contains a dark inner part with the exterior, slightly pink. The pink outer part is suspended in a small amount of 50.0 mM Tris.HCl buffer, pH 7.4. The protein content is determined by the Lowry's method (Lowry et al, J. Biol. Chem., 1953). The membrane suspension is stored at -70° C., in 50.0 mM Tris.HCl, containing 0.2% inactivated BSA and 0.1 mM PMSF in aliquots of 1.0 ml containing 10.0 mg protein per ml of suspension until use in subsequent binding experiments.
For binding experiments, the following is added in μl volume to wells of a 96 well format of a microtiter plate: 100.0 μl of 100.0 mM Tris.HCl buffer containing 0.2% heat inactivated BSA, 10.0 mM MgCl2 and a mixture of protease inhibitors: leupeptin, 1.0 mg %; aprotinin, 1.0 mg %; 1,10-phenanthroline, 2.0 mg %; trypsin inhibitor, 10.0 mg % and 0.1 mM PMSF, 20.0 μl of [^3 H]Arginine^8, vasopressin (S.A. 75.0 Ci/mmole) at 0.8 nM and the reaction initiated by the addition of 80.0 μl of tissue membranes (200.0 μg tissue protein). The plates are left undisturbed on the bench top for 120 min. to reach equilibrium. Non-specific binding is assessed in the presence of 1.0 μM of unlabeled ligand, added in 20 μl volume. For test compounds, these are solubilized in 50% dimethylsulfoxide (DMSO) and added in 20.0 μl volume to a final incubation volume of 200 μl. Upon completion of binding, the content of each well is filtered off, using a Brandel® cell Harvester (Gaithersburg, Md.). The radioactivity trapped on the filter disk by the ligand-receptor complex is assessed by liquid scintillation counting in a Packard LS Counter, with an efficiency of 65% for tritium. The data are analyzed for IC50 values by the LUNDON-2 program for competition (LUNDON SOFTWARE, Ohio).

pIC50: −log10 of the molar value.

T1 sequence (P30560 whole entry): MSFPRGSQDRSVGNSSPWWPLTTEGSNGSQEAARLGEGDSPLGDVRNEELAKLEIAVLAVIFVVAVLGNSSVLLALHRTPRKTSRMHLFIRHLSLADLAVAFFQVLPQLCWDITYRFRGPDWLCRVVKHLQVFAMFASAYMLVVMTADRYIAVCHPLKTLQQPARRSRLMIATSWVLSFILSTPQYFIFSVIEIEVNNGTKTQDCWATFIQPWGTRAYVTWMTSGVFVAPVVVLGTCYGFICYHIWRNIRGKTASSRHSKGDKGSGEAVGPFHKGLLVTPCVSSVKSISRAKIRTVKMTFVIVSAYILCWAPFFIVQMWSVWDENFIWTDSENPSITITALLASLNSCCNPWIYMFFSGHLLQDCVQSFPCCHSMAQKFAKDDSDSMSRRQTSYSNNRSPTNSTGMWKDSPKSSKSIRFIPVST
T3 sequence (Q00788 whole entry): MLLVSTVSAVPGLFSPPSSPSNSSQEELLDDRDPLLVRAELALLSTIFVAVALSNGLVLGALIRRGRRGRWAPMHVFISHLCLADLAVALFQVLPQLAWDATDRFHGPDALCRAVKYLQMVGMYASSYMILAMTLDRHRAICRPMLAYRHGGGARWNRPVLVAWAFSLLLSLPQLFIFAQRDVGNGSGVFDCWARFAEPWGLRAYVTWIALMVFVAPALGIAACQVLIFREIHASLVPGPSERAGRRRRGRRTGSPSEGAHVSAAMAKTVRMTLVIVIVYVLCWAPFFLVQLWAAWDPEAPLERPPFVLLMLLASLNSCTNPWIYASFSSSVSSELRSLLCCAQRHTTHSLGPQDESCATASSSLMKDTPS

Compound `Cc1ccc(F)cc1C(=O)Nc1ccc(C(=O)N2CCc3cn[nH]c3-c3sccc32)cc1` [Example 2, N-[4-[(4,5-Dihydropyrazolo[3,4-d]thieno[3,2-b]azepin-6(1H)-yl)carbonyl]phenyl]-5-fluoro-2methylbenzamide] yielded an IC50 in experiment [1] of 1.7 µM. Further, the “Urine Vol. (ml/4 hrs.)” value in experiment [2] stood at 17.8 ml/4 hrs. Also, the “Osmolality (mOsm/kg)” value in experiment [2] (urine) is 429 mOsm/kg. Besides, in experiment [3], the pIC50 is 5.89 and the inhibition at 10 µM is 91%.

Take `Cn1cc2c(n1)-c1sccc1N(C(=O)c1ccc(NC(=O)C3CCCCC3)cc1)CC2` [Example 6, N-[4-[[4,5-Dihydro-2-methylpyrazolo[3,4-d]thieno[3,2-b]-azepin-6(2H)-yl]carbonyl]phenyl]cyclohexane carboxamide]: the IC50 in experiment [1] was 4.7 µM; in experiment [4], 0.23 µM. The compound further gave a pIC50 in experiment [3] of 5.77. In experiment [3], this compound returned an inhibition at 10 µM of 94%.
